Measured values from publication PMC7796031, “Studies of Coumarin Derivatives for Constitutive Androstane Receptor (CAR) Activation” (Molecules, 2020).

Key:
FXR = tested on: FXR; parameters: method as in PMID 21649640; details: scoparone alone, up to 100 μM; cited from earlier work
bile salt export pump = tested on: bile salt export pump; parameters: method as in PMID 21649640; details: scoparone 10 μM with chenodeoxycholic acid 10 μM; cited from earlier work
EGFR = molecular target: T1, EGFR (Homo sapiens, UniProt P00533); assay: EGF-induced phosphorylation of EGFR in Hep3B (western blot); format: cell-based; details: 10 μM, 15 min
T1 construct: 6,7-Diprenoxycoumarin (50) antagonized EGF-induced phosphorylation EGFR in Hep3B; endogenous in cells; host or cells: Hep3B
T1 sequence (P00533 25-1210): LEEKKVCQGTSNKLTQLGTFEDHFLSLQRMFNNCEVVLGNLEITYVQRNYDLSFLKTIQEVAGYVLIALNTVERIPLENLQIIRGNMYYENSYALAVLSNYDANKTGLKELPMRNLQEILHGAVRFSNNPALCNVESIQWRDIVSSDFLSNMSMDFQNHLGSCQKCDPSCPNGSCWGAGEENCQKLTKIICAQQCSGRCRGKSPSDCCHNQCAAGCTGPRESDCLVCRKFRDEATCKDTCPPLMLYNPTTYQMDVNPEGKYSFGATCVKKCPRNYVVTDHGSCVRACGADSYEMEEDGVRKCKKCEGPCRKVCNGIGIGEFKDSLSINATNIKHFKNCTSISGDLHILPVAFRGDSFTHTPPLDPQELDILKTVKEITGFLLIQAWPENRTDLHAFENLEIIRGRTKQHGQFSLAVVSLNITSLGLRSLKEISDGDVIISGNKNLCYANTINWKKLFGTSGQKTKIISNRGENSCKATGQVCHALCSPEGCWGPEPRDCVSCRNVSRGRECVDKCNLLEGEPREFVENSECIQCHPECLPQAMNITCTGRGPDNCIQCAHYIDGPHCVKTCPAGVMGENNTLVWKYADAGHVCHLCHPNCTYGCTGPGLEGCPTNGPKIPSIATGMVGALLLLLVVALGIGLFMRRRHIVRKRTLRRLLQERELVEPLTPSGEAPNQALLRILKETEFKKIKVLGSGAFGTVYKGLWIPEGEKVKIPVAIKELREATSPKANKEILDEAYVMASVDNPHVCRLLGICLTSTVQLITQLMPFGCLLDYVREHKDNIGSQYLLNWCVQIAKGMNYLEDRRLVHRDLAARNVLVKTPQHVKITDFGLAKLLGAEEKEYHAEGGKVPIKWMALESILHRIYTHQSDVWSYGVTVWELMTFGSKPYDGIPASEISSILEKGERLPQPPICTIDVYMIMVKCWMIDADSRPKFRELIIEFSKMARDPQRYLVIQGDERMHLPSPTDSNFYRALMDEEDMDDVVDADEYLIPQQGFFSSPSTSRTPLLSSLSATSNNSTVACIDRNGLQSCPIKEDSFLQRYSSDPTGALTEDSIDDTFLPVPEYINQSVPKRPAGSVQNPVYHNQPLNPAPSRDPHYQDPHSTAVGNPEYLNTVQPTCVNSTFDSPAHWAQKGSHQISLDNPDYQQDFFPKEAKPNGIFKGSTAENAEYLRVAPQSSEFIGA
Experimental: Figure 4 6,7-Diprenoxycoumarin (50) antagonized EGF-induced phosphorylation EGFR in Hep3B. The Hep3B cells (1 × 10^6) were treated without (Ctrl) or with EGF in the absent 50 or present (EGF + 50) of 10 μM 50 for 15 min and phosphorylation status of EGFR was measured.
(§1) 1 × 10^6 cells were seeded in a 10 cm plate, incubated at 37 °C for overnight and treated with various concentrations of compounds for the indicated times. After incubation, the culture medium was removed and washed twice with 2 mL ice-cold 1× PBS. Three hundred μL of protein lysis buffer (150 mM NaCl, 50 mM Tris-HCl (pH 7.4), 1% SDS, 1% Triton X-100, 1 mM PMSF) was added into each plate, scraped with a rubber policeman, collected into a premarked microtube and the incubated in ice for 1 h, sonicated by Ultrasonic Cell Disruptor for three time at 5 s each. The cell lysated was cleared by centrifugation at 12,000× g for 15 min at 4 °C. Supernatants were transferred into a fresh marked microtube and stored at −20 °C for future use.
(§2) Protein concentration of each sample was determined using a BCA Protein Assay Kit (Pirece®, Thermo Scientific). Different percentages of SDS-PAGE gels were prepared according to the molecular size of proteins of interest. […] The emitted fluorescence from the membrane was caught on a LAS-4000 biomolecule imager (FUJI.).

methyl-PP2Ac = assay: PP2Ac methylation status in Hep3B (western blot); format: cell-based, human; details: Hep3B, 5, 10, 20 and 40 μM, 24 h
Experimental: Figure 5 The concentration-dependent study of PP2Ac methylation status under 6,7-diprenoxycoumarin (50) treatment. Hep3B cells (1 × 10^6) were treated with 50 (5, 10, 20 and 40 μM) for 24 h. Treated cell lysates were prepared as described in the Methods section and methyl-PP2Ac expression was analyzed by western blot.
as §1, §2

MRP2 = assay: mRNA expression of MRP2 in Hep3B (RT-PCR); format: cell-based, human; details: 10 μM, 2, 4, 6, 8 and 10 h
Experimental: (§3) Figure 6 The time course study of mRNA expression of MRP2 and UGT1A1 after 10 μM 6,7-diprenoxycoumarin treatment. Hep3B cells were treated with 10 μM 50 for 2, 4, 6, 8 and 10 h. The total mRNA was obtained and the expression of downstream genes were analyzed with PCR. The ratio of MRP2 to GAPDH was calculated using Image J and normalization.
(§4) Total RNA was isolated from control and treated cells using a TRIzol reagent (Invitrogen) according to the manufacturer’s instruction. The RNA concentration was measured by a spectrophotometer and equal amounts of total RNA (2 μg) were reverse—transcribed using a RevertAid First Strand cDNA Synthesis Kit (K1622, Fermentas, Hanover, MD, USA). Amplification of cDNA was performed in the PCR reaction buffer (0.2 mM dNTP, 1.5 mM MgCl2, and 0.5 μM of each primer) containing 2.5 units of Taq DNA polymerase. The PCR products were resolved by agarose electrophoresis, visualized by ethidium bromide straining and quantified by Image J®. The PCR cycling procedures and sequences of primers are listed below. PCR conditions: (1) UGT1A1: 94 °C, 30 s; 62 °C, 45 s; 72 °C, 30 s; 27 cycles; (2) MRP2: 94 °C, 30 s; 62 °C, 45 s; 72 °C, 30 s; 27 cycles; (3) CAR: 94 °C, 30 s; 59 °C, 45 s; 72 °C, 30 s; 35 cycles; (4) GADPH: 94 °C, 30 s; 62 °C, 45 s; 72 °C, 30 s; 27 cycles; (4) gtPBREM: 94 °C, 30 s; 63 °C, 30 s; 68 °C, 60 s; 30 cycles.

UGT1A1 = assay: mRNA expression of UGT1A1 in Hep3B (RT-PCR); format: cell-based, human; details: 10 μM, 2, 4, 6, 8 and 10 h
Experimental: as §3, §4

| SMILES | FXR activation (FXR) | effect on chenodeoxycholic acid-increased expression of bile salt export pump (bile salt export pump) | EGF-induced phosphorylation of EGFR (EGFR) | methyl-PP2Ac (active form of PP2Ac) (methyl-PP2Ac) | mRNA expression level of MRP2 (MRP2) | mRNA expression level of UGT1A1 (UGT1A1) |
| --- | --- | --- | --- | --- | --- | --- |
| COc1cc2ccc(=O)oc2cc1OC [Compound 39, scoparone] | no effect | potentiated | – | – | – | – |
| CC(C)=CCOc1cc2ccc(=O)oc2cc1OCC=C(C)C [Compound 50, 6,7-diprenoxycoumarin] | – | – | reduce | increased | enhanced | enhanced |
